{"source": "patent US6376666B1", "about": "(Nauchno-Issledovatelsky Institut Farmakologii Rossiiskoi …, priority 1994, dated 2002)", "key": {"[1]": {"test_system": "Balb/c mice", "assay": "open-field test, Balb/c mice (passive type of emotional-stress reaction)", "type": "in vivo", "parameters": "key to Total activity: sum of all locomotor activity counts (crossings + rearings) in 3 min", "how_it_was_run": "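Male mice, 20-22 g, dosed i.p. in water 30 min before a 3-min open-field test after 1 min in darkness; peripheral, central, rearing and total activity plus defecations recorded; Student t-test. Anxiolysis read as Balb/c activation, sedation as C57B1/6 inhibition.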"}, "[2]": {"test_system": "cats", "assay": "hemodynamics and activity of intact heart in cats under anesthesia", "type": "in vivo", "details": "for Cardiac volume, change from basal level / Heart rate, change from basal level / Mean blood flow accelaration (aortic), change from basal level / Mean blood pressure, change from basal level / Stroke volume, change from basal level: cats", "experimental": "The effects of compounds on the hemodynamics and activity of intact heart were studied in cats under anesthesia. The experiments were carried out under conditions of open chest. The phase curve of aortic blood flow was the main index of cardiac activity. The compounds were administered i.v. in physiological solution. The t-Student' test was used to estimate the statistical significance."}, "[3]": {"details": "0.1 mg/kg i.p., M ± mx, 0.1 mg/kg"}, "[4]": {"details": "1.0 mg/kg i.p., M ± mx, 1 mg/kg"}, "[5]": {"details": "10.0 mg/kg i.p., M ± mx, 10 mg/kg"}, "[6]": {"details": "0.5 mg/kg i.v., after injection"}, "[7]": {"details": "1.0 mg/kg i.v., after injection"}}, "data": [{"smiles": "CCOc1ccc2nc(SCCN(CC)CC)[nH]c2c1", "note": "[Compound IX, 2-[2-(Diethylamino)ethylthio]-5-ethoxybenz-imidazole]", "values": [{"measurement": "Number of defecations", "setting": "[1]; 0.1 mg/kg i.p., M ± mx", "result": "0.1 ± 0.1"}, {"measurement": "Peripheral activity (crossings)", "setting": "[1]; [3]", "result": "15.1 ± 9.0"}, {"measurement": "Total activity", "setting": "[1]; [3]", "result": "15.1 ± 9.0"}, {"measurement": "Peripheral activity (crossings)", "setting": "[1]; [4]", "result": "39.8 ± 7.3"}, {"measurement": "Total activity", "setting": "[1]; [4]", "result": "39.8 ± 7.3"}, {"measurement": "Peripheral activity (crossings)", "setting": "[1]; 5.0 mg/kg i.p., M ± mx", "result": "44.1 ± 10.2"}, {"measurement": "Total activity", "setting": "[1]; 5.0 mg/kg i.p., M ± mx", "result": "44.1 ± 10.2"}, {"measurement": "Peripheral activity (crossings)", "setting": "[1]; [5]", "result": "36.8 ± 5.0"}, {"measurement": "Total activity", "setting": "[1]; [5]", "result": "36.8 ± 5.0"}, {"measurement": "Peripheral activity (crossings)", "setting": "[1]; 20.0 mg/kg i.p., M ± mx", "result": "17.8 ± 5.5"}, {"measurement": "Total activity", "setting": "[1]; 20.0 mg/kg i.p., M ± mx", "result": "17.8 ± 5.5"}, {"measurement": "effect on the behavior (locomotor activity) of Balb/c mice in open-field test, in words", "setting": "[1]; i.p., screening", "result": "able to activate the behavior of Balb/c mice"}, {"measurement": "effect on contractile function of heart, in words", "setting": "[2]; cats i.v., same doses as bradycardia", "result": "slightly enhanced the contractility of myocardium"}, {"measurement": "duration of bradycardia after administration", "setting": "[2]; cats i.v., VIII 1,0, IX 0,5 and 1,0, XX 1,0 and 2,0 mg/kg", "result": 30, "unit": "min"}, {"measurement": "effect on heart rate, in words", "setting": "[2]; cats i.v., VIII 1,0, IX 0,5 and 1,0, XX 1,0 and 2,0 mg/kg, XXIII 1.0, verapamil 0.5 mg/kg", "result": "expressed bradycardia"}, {"measurement": "Cardiac volume, change from basal level", "setting": "[2]; 0.5 mg/kg i.v., after 2 min", "result": "−3.5 ± 6.0", "unit": "%"}, {"measurement": "Heart rate, change from basal level", "setting": "[2]; 0.5 mg/kg i.v., after 2 min", "result": "−11.6 ± 2.8", "unit": "%"}, {"measurement": "Mean blood flow accelaration (aortic), change from basal level", "setting": "[2]; 0.5 mg/kg i.v., after 2 min", "result": "+11.0 ± 8.8%"}, {"measurement": "Mean blood pressure, change from basal level", "setting": "[2]; 0.5 mg/kg i.v., after 2 min", "result": "+4.4 ± 4.7%"}, {"measurement": "Stroke volume, change from basal level", "setting": "[2]; 0.5 mg/kg i.v., after 2 min", "result": "+9.4 ± 6.5%"}, {"measurement": "Cardiac volume, change from basal level", "setting": "[2]; 0.5 mg/kg i.v., after 5 min", "result": "−1.7 ± 4.8", "unit": "%"}, {"measurement": "Mean blood flow accelaration (aortic), change from basal level", "setting": "[2]; 0.5 mg/kg i.v., after 5 min", "result": "+0.6 ± 4.9%"}, {"measurement": "Mean blood pressure, change from basal level", "setting": "[2]; 0.5 mg/kg i.v., after 5 min", "result": "−5.4 ± 2.3", "unit": "%"}, {"measurement": "Stroke volume, change from basal level", "setting": "[2]; 0.5 mg/kg i.v., after 5 min", "result": "+5.6 ± 5.6%"}, {"measurement": "Cardiac volume, change from basal level", "setting": "[2]; 0.5 mg/kg i.v., after 10 min", "result": "−4.2± 2.1", "unit": "%"}, {"measurement": "Heart rate, change from basal level", "setting": "[2]; 0.5 mg/kg i.v., after 10 min", "result": "−7.3 ± 1.6", "unit": "%"}, {"measurement": "Mean blood flow accelaration (aortic), change from basal level", "setting": "[2]; 0.5 mg/kg i.v., after 10 min", "result": "+3.0 ± 4.0%"}, {"measurement": "Mean blood pressure, change from basal level", "setting": "[2]; 0.5 mg/kg i.v., after 10 min", "result": "−1.2 ± 3.6", "unit": "%"}, {"measurement": "Stroke volume, change from basal level", "setting": "[2]; 0.5 mg/kg i.v., after 10 min", "result": "+3.6 ± 3.0%"}, {"measurement": "Cardiac volume, change from basal level", "setting": "[2]; 0.5 mg/kg i.v., after 20 min", "result": "−6.1 ± 3.4", "unit": "%"}, {"measurement": "Heart rate, change from basal level", "setting": "[2]; 0.5 mg/kg i.v., after 20 min", "result": "−4.5 ± 2.2", "unit": "%"}, {"measurement": "Mean blood flow accelaration (aortic), change from basal level", "setting": "[2]; 0.5 mg/kg i.v., after 20 min", "result": "+5.6 ± 5.1%"}, {"measurement": "Mean blood pressure, change from basal level", "setting": "[2]; 0.5 mg/kg i.v., after 20 min", "result": "−4.1 ± 4.8", "unit": "%"}, {"measurement": "Stroke volume, change from basal level", "setting": "[2]; 0.5 mg/kg i.v., after 20 min", "result": "−0.7 ± 4.0", "unit": "%"}, {"measurement": "Cardiac volume, change from basal level", "setting": "[2]; 0.5 mg/kg i.v., after 30 min", "result": "−2.8 ± 7.8", "unit": "%"}, {"measurement": "Heart rate, change from basal level", "setting": "[2]; 0.5 mg/kg i.v., after 30 min", "result": "−5.3 ± 2.3", "unit": "%"}, {"measurement": "Mean blood flow accelaration (aortic), change from basal level", "setting": "[2]; 0.5 mg/kg i.v., after 30 min", "result": "+1.8 ± 5.8%"}, {"measurement": "Mean blood pressure, change from basal level", "setting": "[2]; 0.5 mg/kg i.v., after 30 min", "result": "−4.9 ± 6.5", "unit": "%"}, {"measurement": "Stroke volume, change from basal level", "setting": "[2]; 0.5 mg/kg i.v., after 30 min", "result": "+1.8 ± 9.3%"}, {"measurement": "Cardiac volume, change from basal level", "setting": "[2]; [6]", "result": "+6.5 ± 2.8%"}, {"measurement": "Heart rate, change from basal level", "setting": "[2]; [6]", "result": "−8.0 ± 3.5", "unit": "%"}, {"measurement": "Mean blood flow accelaration (aortic), change from basal level", "setting": "[2]; [6]", "result": "+8.8 ± 5.8%"}, {"measurement": "Mean blood pressure, change from basal level", "setting": "[2]; [6]", "result": "−2.1 ± 3.0", "unit": "%"}, {"measurement": "Stroke volume, change from basal level", "setting": "[2]; [6]", "result": "+17.0 ± 5.5 %"}, {"measurement": "Cardiac volume, change from basal level", "setting": "[2]; 1.0 mg/kg i.v., after 2 min", "result": "+2.2 ± 3.5%"}, {"measurement": "Heart rate, change from basal level", "setting": "[2]; 1.0 mg/kg i.v., after 2 min", "result": "−14.1 ± 2.1", "unit": "%"}, {"measurement": "Mean blood flow accelaration (aortic), change from basal level", "setting": "[2]; 1.0 mg/kg i.v., after 2 min", "result": "± 8.6 +3.8%"}, {"measurement": "Mean blood pressure, change from basal level", "setting": "[2]; 1.0 mg/kg i.v., after 2 min", "result": "+0.6 ± 2.7%"}, {"measurement": "Stroke volume, change from basal level", "setting": "[2]; 1.0 mg/kg i.v., after 2 min", "result": "+19.3 ± 4.6 %"}, {"measurement": "Cardiac volume, change from basal level", "setting": "[2]; 1.0 mg/kg i.v., after 5 min", "result": "+1.7 ± 6.8%"}, {"measurement": "Heart rate, change from basal level", "setting": "[2]; 1.0 mg/kg i.v., after 5 min", "result": "−10.6 ± 1.5", "unit": "%"}, {"measurement": "Mean blood flow accelaration (aortic), change from basal level", "setting": "[2]; 1.0 mg/kg i.v., after 5 min", "result": "+13.6 ± 5.7%"}, {"measurement": "Mean blood pressure, change from basal level", "setting": "[2]; 1.0 mg/kg i.v., after 5 min", "result": "−3.8 ± 3.4", "unit": "%"}, {"measurement": "Stroke volume, change from basal level", "setting": "[2]; 1.0 mg/kg i.v., after 5 min", "result": "+13.8 ± 7.8%"}, {"measurement": "Cardiac volume, change from basal level", "setting": "[2]; 1.0 mg/kg i.v., after 10 min", "result": "−1.3 ± 6.8", "unit": "%"}, {"measurement": "Heart rate, change from basal level", "setting": "[2]; 1.0 mg/kg i.v., after 10 min", "result": "−7.1 ± 1.0", "unit": "%"}, {"measurement": "Mean blood flow accelaration (aortic), change from basal level", "setting": "[2]; 1.0 mg/kg i.v., after 10 min", "result": "+9.6 ± 3.9 %"}, {"measurement": "Mean blood pressure, change from basal level", "setting": "[2]; 1.0 mg/kg i.v., after 10 min", "result": "−6.8 ± 2.5", "unit": "%"}, {"measurement": "Stroke volume, change from basal level", "setting": "[2]; 1.0 mg/kg i.v., after 10 min", "result": "+5.9 ± 6.3%"}, {"measurement": "Cardiac volume, change from basal level", "setting": "[2]; 1.0 mg/kg i.v., after 20 min", "result": "−0.2 ± 3.8", "unit": "%"}, {"measurement": "Heart rate, change from basal level", "setting": "[2]; 1.0 mg/kg i.v., after 20 min", "result": "−4.2 ± 1.9", "unit": "%"}, {"measurement": "Mean blood flow accelaration (aortic), change from basal level", "setting": "[2]; 1.0 mg/kg i.v., after 20 min", "result": "+13.1 ± 5.0 %"}, {"measurement": "Mean blood pressure, change from basal level", "setting": "[2]; 1.0 mg/kg i.v., after 20 min", "result": "−1.9 ± 2.9", "unit": "%"}, {"measurement": "Stroke volume, change from basal level", "setting": "[2]; 1.0 mg/kg i.v., after 20 min", "result": "+4.4 ± 4.5%"}, {"measurement": "Cardiac volume, change from basal level", "setting": "[2]; 1.0 mg/kg i.v., after 30 min", "result": "−2.5 ± 5.1", "unit": "%"}, {"measurement": "Heart rate, change from basal level", "setting": "[2]; 1.0 mg/kg i.v., after 30 min", "result": "−2.3 ± 3.5", "unit": "%"}, {"measurement": "Mean blood flow accelaration (aortic), change from basal level", "setting": "[2]; 1.0 mg/kg i.v., after 30 min", "result": "+3.9 ± 2.0%"}, {"measurement": "Mean blood pressure, change from basal level", "setting": "[2]; 1.0 mg/kg i.v., after 30 min", "result": "−2.7 ± 2.9", "unit": "%"}, {"measurement": "Stroke volume, change from basal level", "setting": "[2]; 1.0 mg/kg i.v., after 30 min", "result": "+0.7 ± 6.7%"}, {"measurement": "Cardiac volume, change from basal level", "setting": "[2]; [7]", "result": "+17.6 ± 8.2%"}, {"measurement": "Heart rate, change from basal level", "setting": "[2]; [7]", "result": "−15.4 ± 2.7", "unit": "%"}, {"measurement": "Mean blood flow accelaration (aortic), change from basal level", "setting": "[2]; [7]", "result": "+14.8 ± 8.8%"}, {"measurement": "Mean blood pressure, change from basal level", "setting": "[2]; [7]", "result": "−1.6 ± 7.3", "unit": "%"}, {"measurement": "Stroke volume, change from basal level", "setting": "[2]; [7]", "result": "+34.21 ± 0.6 %"}]}]}
